Measured values published in patent US6914045B2, “Glycopeptide antibiotics” (Wyeth Holdings Corporation, priority 2001, dated 2005).
Values after ≈ are worked out from the molar mass of the structure shown.

Key:
[1] = test system: Staphylococcus aureus-SMITH (GC 4543); experiment: acute lethal infection in mice; type: in vivo; settings: acute lethal infection, female CD-1 mice, intraperitoneal challenge, intravenous 30 min. after infection, 7 day survival
Summary of the method: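 Protocol: bacteria suspended in trypticase soy broth or hog gastric mucin injected ip into female CD-1 mice at a level killing untreated controls in 24-48 hr; compound given iv in saline or 5% dextrose 30 min post-challenge; five mice per dose; ED50 derived from pooled 7 day survival of three runs.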

[2] = test system: Escherichia coli; experiment: in vitro antibacterial evaluation, MIC by broth dilution; type: cell-based; settings: 18 hours at 35° C.
Summary of the method: (§1)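 MIC = lowest antibiotic concentration preventing visible growth; inoculum 5×10^5 CFU/mL; drug range 64-0.06 μg/mL; Muller-Hinton II […]; NCCLS M7-A2 guidance.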

[3] = test system: Streptococcus sp.; experiment: as above; type: cell-based; settings: broth dilution, 18 hours at 35° C.
Summary of the method: as §1

[4] = test system: Enterococcus sp.; experiment: as above; type: cell-based; settings: broth dilution, 18 hours at 35° C.
Summary of the method: as §1

[5] = test system: Staphylococcus sp.; experiment: as above; type: cell-based; settings: broth dilution, 18 hours at 35° C.
Summary of the method: as §1

For CC(c1ccccc1)C1NC(=O)CNC(=O)C(CO)NC(=O)C(C(O)C2CNC(=N)N2C2OC(CO)C(O)C(O)C2O)NC(=O)C(C(O)C2CNC(=N)N2)NC(=O)C(Cc2ccc(OC3OC(CO)C(OC4OC5COC(Cc6ccc(Cl)cc6)OC5C(O)C4O)C(O)C3O)cc2)NC1=O (stereo not drawn) [Example 120, Cyclo[glycyl-β-methylphenylalanyl-O-[4-O-[4,6-O-(4-chlorophenethylidene)hexopyranosyl]-hexopyranosyl]tyrosyl-3-(2-iminoimidazolidin-4-yl)seryl-3-(3-hexopyranosyl-2-iminoimidazolidin-4-yl)serylseryl]], the median effective dose (ED50), Staphylococcus aureus-SMITH (GC 4543) [1] was 0.06 mg/kg, the “MIC Escherichia coli (ATCC 25922)” value ([2]; strain ATCC 25922) was 16 µg/mL (≈ 11.2 µM) and the “MIC Escherichia coli (GC 4559)” value ([2]; strain GC 4559) was 16 µg/mL (≈ 11.2 µM). The “MIC Escherichia coli (GC 4560)” value ([2]; strain GC 4560) was under 0.5 µg/mL, the “MIC Streptococcus agalactiae (GC 4564)” value ([3]; Streptococcus agalactiae (GC 4564)) was under 0.5 µg/mL and the “MIC Streptococcus pneumoniae (ATCC 6301)” value ([3]; Streptococcus pneumoniae (ATCC 6301)) was under 0.5 µg/mL. The “MIC Streptococcus pneumoniae (GC 1894)” value ([3]; Streptococcus pneumoniae (GC 1894)) was under 0.5 µg/mL, the “MIC Streptococcus pneumoniae (GC 4565)” value ([3]; Streptococcus pneumoniae (GC 4565)) was under 0.5 µg/mL and the “MIC Streptococcus pyogenes (GC 4563)” value ([3]; Streptococcus pyogenes (GC 4563)) was under 0.5 µg/mL. For the same compound, the “MIC Streptococcus pneumoniae (ATCC 6301)” value ([3]; strain ATCC 6301) was under 0.5 µg/mL, the “MIC Streptococcus pneumoniae (GC 1894)” value ([3]; strain GC 1894) was under 0.5 µg/mL and the “MIC Streptococcus pyogenes (GC 4563)” value ([3]; strain GC 4563) was under 0.5 µg/mL. The “MIC Streptococcus agalactiae (GC 4564)” value ([3]; strain GC 4564) was under 0.5 µg/mL, the “MIC Streptococcus pneumoniae (GC 4565)” value ([3]; strain GC 4565) was under 0.5 µg/mL and the “MIC Enterococcus avium (GC 4558)” value ([4]; Enterococcus avium (GC 4558)) was 1 µg/mL (≈ 0.698 µM). The “MIC Enterococcus faecalis (ATCC 29212)” value ([4]; Enterococcus faecalis (ATCC 29212)) was 1 µg/mL (≈ 0.698 µM), the “MIC Enterococcus faecalis (GC 2242)” value ([4]; Enterococcus faecalis (GC 2242)) was 1 µg/mL (≈ 0.698 µM) and the “MIC Enterococcus faecalis (GC 2691)” value ([4]; Enterococcus faecalis (GC 2691)) was 1 µg/mL (≈ 0.698 µM). The “MIC Enterococcus faecalis (GC 3059)” value ([4]; Enterococcus faecalis (GC 3059)) was 1 µg/mL (≈ 0.698 µM), the “MIC Enterococcus faecalis (GC 4552)” value ([4]; Enterococcus faecalis (GC 4552)) was 1 µg/mL (≈ 0.698 µM) and the “MIC Enterococcus faecalis (GC 4553)” value ([4]; Enterococcus faecalis (GC 4553)) was 1 µg/mL (≈ 0.698 µM). For the same compound, the “MIC Enterococcus faecalis (GC 4554)” value ([4]; Enterococcus faecalis (GC 4554)) was 1 µg/mL (≈ 0.698 µM), the “MIC Enterococcus faecalis (GC 6189)” value ([4]; Enterococcus faecalis (GC 6189)) was 1 µg/mL (≈ 0.698 µM) and the “MIC Enterococcus faecium (GC 2243)” value ([4]; Enterococcus faecium (GC 2243)) was 1 µg/mL (≈ 0.698 µM). The “MIC Enterococcus faecium (GC 4556)” value ([4]; Enterococcus faecium (GC 4556)) was 1 µg/mL (≈ 0.698 µM), the “MIC Enterococcus faecium (GC 4557)” value ([4]; Enterococcus faecium (GC 4557)) was 1 µg/mL (≈ 0.698 µM) and the “MIC Enterococcus faecalis (ATCC 29212)” value ([4]; strain ATCC 29212) was 1 µg/mL (≈ 0.698 µM). For the same compound, the “MIC Enterococcus faecalis (GC 2242)” value ([4]; strain GC 2242) was 1 µg/mL (≈ 0.698 µM), the “MIC Enterococcus faecium (GC 2243)” value ([4]; strain GC 2243) was 1 µg/mL (≈ 0.698 µM) and the “MIC Enterococcus faecalis (GC 2691)” value ([4]; strain GC 2691) was 1 µg/mL (≈ 0.698 µM). For the same compound, the “MIC Enterococcus faecalis (GC 3059)” value ([4]; strain GC 3059) was 1 µg/mL (≈ 0.698 µM), the “MIC Enterococcus faecalis (GC 4552)” value ([4]; strain GC 4552) was 1 µg/mL (≈ 0.698 µM) and the “MIC Enterococcus faecalis (GC 4553)” value ([4]; strain GC 4553) was 1 µg/mL (≈ 0.698 µM). For the same compound, the “MIC Enterococcus faecalis (GC 4554)” value ([4]; strain GC 4554) was 1 µg/mL (≈ 0.698 µM), the “MIC Enterococcus faecium (GC 4556)” value ([4]; strain GC 4556) was 1 µg/mL (≈ 0.698 µM) and the “MIC Enterococcus faecium (GC 4557)” value ([4]; strain GC 4557) was 1 µg/mL (≈ 0.698 µM). For the same compound, the “MIC Enterococcus avium (GC 4558)” value ([4]; strain GC 4558) was 1 µg/mL (≈ 0.698 µM), the “MIC Enterococcus faecalis (GC 6189)” value ([4]; strain GC 6189) was 1 µg/mL (≈ 0.698 µM) and the “MIC Coagulase Negative Staphylococcus (GC 4547)” value [5] was 1 µg/mL (≈ 0.698 µM). For the same compound, the “MIC Coagulase Negative Staphylococcus (GC 4548)” value [5] was under 0.5 µg/mL, the “MIC Coagulase Negative Staphylococcus (GC 4549)” value [5] was under 0.5 µg/mL and the “MIC Coagulase Negative Staphylococcus (GC 4551)” value [5] was under 0.5 µg/mL. For the same compound, the “MIC Coagulase Negative Staphylococcus (GC 6257)” value [5] was under 0.5 µg/mL, the “MIC Staphylococcus aureus (ATCC 29213)” value [5] was under 0.5 µg/mL and the “MIC Staphylococcus aureus (GC 1131)” value [5] was under 0.5 µg/mL. For the same compound, the “MIC Staphylococcus aureus (GC 3051)” value [5] was under 0.5 µg/mL, the “MIC Staphylococcus aureus (GC 3053)” value [5] was 1 µg/mL (≈ 0.698 µM) and the “MIC Staphylococcus aureus (GC 4541)” value [5] was under 0.5 µg/mL. For the same compound, the “MIC Staphylococcus aureus (GC 4542)” value [5] was under 0.5 µg/mL, the “MIC Staphylococcus aureus (GC 4544)” value [5] was under 0.5 µg/mL and the “MIC Staphylococcus aureus (GC 4545)” value [5] was under 0.5 µg/mL. For the same compound, the “MIC Staphylococcus aureus-SMITH (GC 4543)” value [5] was under 0.5 µg/mL, the “MIC Staphylococcus haemolyticus (GC 4546)” value [5] was under 0.5 µg/mL and the “MIC Staphylococcus aureus (GC 1131)” value ([5]; inoculum 5×10^5 CFU/mL, strain GC 1131) was under 0.5 µg/mL. For the same compound, the “MIC Staphylococcus aureus (ATCC 29213)” value ([5]; strain ATCC 29213) was under 0.5 µg/mL, the “MIC Staphylococcus aureus (GC 3051)” value ([5]; strain GC 3051) was under 0.5 µg/mL and the “MIC Staphylococcus aureus (GC 3053)” value ([5]; strain GC 3053) was 1 µg/mL (≈ 0.698 µM). The “MIC Staphylococcus aureus (GC 4541)” value ([5]; strain GC 4541) was under 0.5 µg/mL, the “MIC Staphylococcus aureus (GC 4542)” value ([5]; strain GC 4542) was under 0.5 µg/mL and the “MIC Staphylococcus aureus (GC 4544)” value ([5]; strain GC 4544) was under 0.5 µg/mL. For the same compound, the “MIC Staphylococcus aureus (GC 4545)” value ([5]; strain GC 4545) was under 0.5 µg/mL, the “MIC Staphylococcus haemolyticus (GC 4546)” value ([5]; strain GC 4546) was under 0.5 µg/mL and the “MIC Coagulase Negative Staphylococcus (GC 4547)” value ([5]; strain GC 4547) was 1 µg/mL (≈ 0.698 µM). For the same compound, the “MIC Coagulase Negative Staphylococcus (GC 4548)” value ([5]; strain GC 4548) was under 0.5 µg/mL, the “MIC Coagulase Negative Staphylococcus (GC 4549)” value ([5]; strain GC 4549) was under 0.5 µg/mL and the “MIC Coagulase Negative Staphylococcus (GC 4551)” value ([5]; strain GC 4551) was under 0.5 µg/mL. For the same compound, the “MIC Coagulase Negative Staphylococcus (GC 6257)” value ([5]; strain GC 6257) was under 0.5 µg/mL and the “MIC Staphylococcus aureus-SMITH (GC 4543)” value ([5]; strain SMITH GC 4543) was under 0.5 µg/mL.
